The subject of data set [1] is Staphylococcus aureus (Smith strain, ATCC™ 13709). Description: In vivo efficacy, acute lethal S. aureus infection in mice. Conditions: ICR mice; i.p. one hour post infection; lowest dose tested; 100% protection. On the procedure:
B. Efficacy: In vivo efficacy studies were performed on ICR mice (supplied by Charles River Laboratories, Wilmington, Mass.) having a bodyweight of 20±2 g. Mice (38) were inoculated i.p. with an LD90-100 dose (1×10^6 CFU/mouse) of Staphylococcus aureus (Smith strain, ATCC™ 13709) suspended in 0.5 mL of BHI containing 5% mucin. Compound 1 at doses 20, 30, 40, 50, 60 and 70 mg/kg (formulated in 20% propylene glycol/water for a total volume of 10 μL/g of weigth) was administered i.p. one hour post infection (5 mice for each concentration). Another group of 5 mice was treated i.v. with a 10 mg/kg dose of Vancomycin. A last group of 3 mice was administered vehicle only. Mortality was recorded for 7 days.

The nature of data set [2]: in vitro. In kind it is cell-based. The following applies: sheep; concentration to achieve 50% hemolysis of SRBC; read-out: In vitro Hemolytic activity (EC50). As to the method: (§1) A. Toxicity: Acute toxicities were determined using CD-1 female mice (supplied by Charles River Laboratories, Wilmington, Mass.) having a bodyweight of 18-25 g, and about 6 weeks of age. Compounds 1 and 2 at doses ranging from 1 to 70 mg/kg (formulated in 20% propylene glycol/water for a total volume of 10 μL/g of weight) were administered intraperitoneal (i.p.) and intravenous (i.v.) to groups of 5 mice (5 mice per concentration, per mode of administration). Two groups of 3 mice were injected with vehicle only. Mice were observed immediately after injection, within 4 hours and once a day for the subsequent days. Acute toxicity studies of Compound 1 in mice indicated no observable effect and high dose tolerability: 70 mg/kg intraperitoneal and 50 mg/kg intravenous (an MTD of 250 mg/kg was also determined by oral administration). […] In vitro Haemolytic activity results are also shown in Table 7, along with the in vivo toxicity and efficacy of Compound 1.

For data set [3], the system named is S. epidermidis (ATCC™ 12228). Description: Minimal bactericidal concentration (NCCLS M26-A). Type of data set: cell-based, Staphylococcus epidermidis. Conditions: for MBC: Staphylococcus epidermidis, more than 99.9% growth inhibition. As to the method: (§2) Minimal bactericidal concentration (MBC) was also determined for Compounds 1 and 2. […] MBC were measured against three Staphylococcus strains, namely sp. aureus MSSA (ATCC™ 6538P), sp. aureus MRSA-hVISA (ATCC™ 700699) and sp. epidermidis (ATCC™ 12228). The results, shown in Table 6 below, were consistent with bactericidal activity (MBC/MIC ratio were of 1 to 2).
(§3) MBC determination was performed according to the NCCLS guideline M26-A: Methods for Determining Bactericidal Activity of Antimicrobial Agents (NCCLS document […], ISBN 1-56238-394-9; NCCLS, 940 West Valley Road, Suite 1400, Wayne, Pa. 19087-1898 USA), the content of which is incorporated herein by reference.
(§4) Microdilutions broth assays were performed using the same procedure as for MIC determination, Example 6. 24 hours post-incubation, cells were collected in wells corresponding to the MIC, 2×MIC and 4×MIC. Collected cells were plated on agar media. MBC were determined as the drug concentration at which more than 99.9% growth inhibition was observed. As a reference for 100% growth, cells grown in media only were also plated.

The nature of data set [4]: in vivo. Conditions: female, CD-1, mouse. On the procedure: as §1
The subject of data set [5] is S. aureus MSSA (ATCC™ 6538P). Description: Minimal bactericidal concentration (NCCLS M26-A). Type of data set: cell-based, Staphylococcus aureus. The following applies: for MBC: Staphylococcus aureus, more than 99.9% growth inhibition. As to the method: as §2, §3, §4
For data set [6], the system named is S. aureus MRSA-hVISA (ATCC™ 700699). Put plainly: Minimal bactericidal concentration (NCCLS M26-A). Type of data set: cell-based, Staphylococcus aureus. Conditions: for MBC: Staphylococcus aureus, more than 99.9% growth inhibition. On the procedure: as §2, §3, §4
Data set [7] concerns SRBC. Put plainly: in vitro. The following applies: at a concentration of 128 μg/ml. Type of data set: cell-based. As to the method:
as §1

This is an account of results in patent publication US20050215490A1, “Polyene polyketides and methods of treating bacterial infections” (Ecopia BioSciences, Inc., priority 2003, published 2005).

Structures are written as SMILES. In brackets after ≈: the same amount, converted by molar mass. Some results are limits rather than exact numbers.

Usually EC50 stands for the concentration giving half of the maximal effect. The term MBC denotes the smallest concentration meeting the test's criterion for killing. A higher MBC goes with less potent killing.

In the case of `CC(=CC=CC=CC=CC=CC(C)C(OC1OC(C(=O)O)C(O)C(O)C1O)C(C)=CC(C)CCCC=CC(C)CC=CCCCN(C)C(=N)N)C(=O)NC1=C(O)CCC1=O` (centres unmarked) [Compound 1, 3,4,5-trihydroxy-6-[1-[11-(2-hydroxy-5-oxocyclopent-1-enylcarbamoyl)-1-methyldodeca-2,4,6,8,10-pentaenyl]-2,4,10-trimethyl-16-(N-methyl-guanidino)-hexadeca-2,8,12-trienyloxy]-tetrahydropyran-2-carboxylic acid], the “In vivo efficacy: S. aureus (Smith), protective dose” value in data set [1] was “≦20 mg/kg”. Besides, the concentration giving a half-maximal response (EC50) in data set [2] was more than 128 µg/mL. For the same compound, the values for the MBC/MIC in data set [3], in data set [5] and in data set [6] were 1, 2 and 1, respectively. Besides, the MBC in data set [3], in data set [5] and in data set [6] was 4 µg/mL (≈ 4.78 µM) throughout. Further, the figures for the MTD in data set [4] (ip) and in data set [4] (po) were 70 mg/kg and 250 mg/kg, respectively.

Regarding `C\C(=C/C=C/C=C/C=C/C=C/C(C)C(OC1OC(C(=O)O)C(O)C(O)C1O)/C(C)=C/C(C)CCC/C=C/C(C)C/C=C/CCCNC(=N)N)C(=O)NC1=C(O)CCC1=O` (centres unmarked) [Compound 2, 6-{16-guanidino-1-[11-(2-hydroxy-5-oxocyclopent-1-enylcarbamoyl)-1-methyldodeca-2,4,6,8,10-pentaenyl]-2,4,10-trimethylhexadeca-2,8,12-trienyloxy}-3,4,5-trihydroxy-tetrahydro-pyran-2-carboxylic acid], in data set [7], the Haemolytic activity entry is “No Haemolytic activity”. Further, the MBC/MIC in data set [3] came to 1; in data set [5] it was 2; in data set [6], 2. Besides, the values for the MBC in data set [3], in data set [5] and in data set [6] were 1 µg/mL (≈ 1.22 µM), 2 µg/mL (≈ 2.43 µM) and 2 µg/mL (≈ 2.43 µM), respectively.
